Values quoted from earlier work in patent publication US20080207756A1, “Bio-absorbable oil suspension” (ATRIUM MEDICAL CORPORATION, priority 2007, published 2008).
Counter-ions that a name gives are not always drawn.

Details: liquid Bupivacaine HCL without epinephrine

## CCCCN1CCCCC1C(=O)Nc1c(C)cccc1C (stereo not shown) [Bupivacaine HCL]
  half life: 2 to 3 h
